The target in assay [1] is Prothrombin (Homo sapiens, UniProt P00734). Briefly: Thrombin 1536 HTS Dose Response Confirmation. [Related pubchem assays: 1046 (Thrombin 1536 HTS; hits were confirmed in this assay)]. Type of assay: functional.
Assay [2] deals with BJ. Briefly: BJ-TERT-LT-ST fibroblast viability loss – cell-based, RAS-independent, luminescence, dose response (AID 1935).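 Further: BJ fibroblasts immortalized with TERT plus LT and ST oncogenes.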 Type of assay: functional. The note with it: Homo sapiens.
Assay [3] concerns BJ. Description: BJ-TERT fibroblast viability loss – cell-based, RAS-independent, luminescence, dose response (AID 1933). The following applies: Homo sapiens. Type of assay: functional.
Assay [4] addresses G-protein coupled receptor 35 (Homo sapiens, UniProt Q9HC97). Briefly: inhibition of zaprinast-stimulated GPR35 beta-arrestin translocation – imaging, U2OS, beta-arrestin-GFP, zaprinast agonist, primary screen (AID 2058).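 Further: antagonist potency meaning inhibition of agonist-induced arrestin redistribution.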 Type of assay: functional.
A short description of assay [5]: DRD fibroblast viability loss – cell-based, non-viral oncogenic, luminescence, dose response (AID 1934). Type of assay: functional. The note with it: Homo sapiens.
Assay [6] has as its system BJ. Description: cells. Type of assay: functional, cell-based. The following applies: Homo sapiens.
Assay [7] concerns the target T1, Endoribonuclease toxin MazF (Escherichia coli K-12, UniProt P0AE70).
T1 sequence (P0AE70 whole entry): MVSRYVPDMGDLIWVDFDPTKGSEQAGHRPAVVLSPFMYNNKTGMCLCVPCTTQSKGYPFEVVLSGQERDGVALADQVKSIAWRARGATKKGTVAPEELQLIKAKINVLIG
Briefly: activation of MazEF endoribonuclease cleavage – biochemical, fluorescence, single-stranded RNA substrate, uHTS hits, dose response (AID 588481). Type of assay: functional.

The target in assay [8] is T1, Endoribonuclease toxin MazF. Briefly: substrate-only fluorescence increase artefacts – biochemical, single-stranded RNase substrate, counter-screen for MazEF activator project, dose response (AID 588502). Type of assay: functional. A general note: A counterscreen serves to expose hits that act by an unwanted route or on another target.
Assay [9] addresses T2, Acyl-homoserine lactone acylase PvdQ (Pseudomonas aeruginosa (strain LESB58), UniProt Q9I194).
T2 sequence (Q9I194 whole entry): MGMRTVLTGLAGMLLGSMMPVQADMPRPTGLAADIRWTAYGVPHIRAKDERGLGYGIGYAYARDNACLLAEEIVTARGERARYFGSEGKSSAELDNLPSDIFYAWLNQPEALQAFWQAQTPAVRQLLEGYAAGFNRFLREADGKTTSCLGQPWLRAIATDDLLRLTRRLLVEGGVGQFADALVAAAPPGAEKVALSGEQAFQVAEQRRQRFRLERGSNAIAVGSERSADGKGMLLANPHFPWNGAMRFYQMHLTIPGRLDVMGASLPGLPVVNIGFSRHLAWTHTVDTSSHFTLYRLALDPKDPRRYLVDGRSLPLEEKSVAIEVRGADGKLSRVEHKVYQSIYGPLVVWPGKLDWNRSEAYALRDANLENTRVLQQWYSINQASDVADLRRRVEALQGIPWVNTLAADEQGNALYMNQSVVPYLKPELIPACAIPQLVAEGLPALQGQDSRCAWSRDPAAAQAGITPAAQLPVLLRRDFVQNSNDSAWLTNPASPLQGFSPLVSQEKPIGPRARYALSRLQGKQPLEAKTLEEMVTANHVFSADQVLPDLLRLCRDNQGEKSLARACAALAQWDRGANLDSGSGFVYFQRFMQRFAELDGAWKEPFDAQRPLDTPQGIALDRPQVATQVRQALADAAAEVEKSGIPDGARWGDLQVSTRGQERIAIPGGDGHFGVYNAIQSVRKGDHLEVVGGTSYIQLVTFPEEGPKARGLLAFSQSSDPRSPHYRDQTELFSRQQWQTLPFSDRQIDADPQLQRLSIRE
Briefly: PvdQ acylase enzyme activity blockers – biochemical, fluorescence, plate reader and imaging, cherry-picks, dose response (AID 493231).

Assay [10] can be described thus: mitochondrial function rescue without frataxin homolog – Friedreich's ataxia, plus single-dose screen, dose response (AID 1465).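 Further: yeast depleted of Yfh1p frataxin homolog grown on glycerol needing respiration; WST-1 tetrazolium dye reduction as measure of cellular dehydrogenase metabolic activity.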 Type of assay: functional.
The target of assay [11] is T3, Lytic switch protein BZLF1 (Epstein-Barr virus (strain B95-8) (HHV-4) (Human herpesvirus 4), UniProt P03206).
T3 sequence (P03206 whole entry): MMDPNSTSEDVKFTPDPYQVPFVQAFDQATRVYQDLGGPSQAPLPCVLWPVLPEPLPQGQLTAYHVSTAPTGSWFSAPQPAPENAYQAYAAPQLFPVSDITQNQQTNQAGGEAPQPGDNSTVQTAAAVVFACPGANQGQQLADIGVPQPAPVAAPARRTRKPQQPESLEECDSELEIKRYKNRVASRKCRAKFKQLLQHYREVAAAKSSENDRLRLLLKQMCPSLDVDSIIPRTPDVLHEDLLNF
Description: inhibition of BZLF1 ZTA DNA binding – biochemical, fluorescence polarization, Epstein-Barr virus, 1536-well, counter-screen for EBNA-1 inhibitor project, dose response (AID 2377).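 Further: fluorescence polarization of Cy5-labelled ZRE DNA probe bound by purified Zta.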 Also on record: species or system human gammaherpesvirus 4. A general note: Polarisation of emitted light reports the rotation of a fluorescent probe.

The target of assay [12] is T4, Epstein-Barr nuclear antigen 1 (Epstein-Barr virus (strain B95-8) (HHV-4) (Human herpesvirus 4), UniProt P03211).
T4 sequence (P03211 whole entry): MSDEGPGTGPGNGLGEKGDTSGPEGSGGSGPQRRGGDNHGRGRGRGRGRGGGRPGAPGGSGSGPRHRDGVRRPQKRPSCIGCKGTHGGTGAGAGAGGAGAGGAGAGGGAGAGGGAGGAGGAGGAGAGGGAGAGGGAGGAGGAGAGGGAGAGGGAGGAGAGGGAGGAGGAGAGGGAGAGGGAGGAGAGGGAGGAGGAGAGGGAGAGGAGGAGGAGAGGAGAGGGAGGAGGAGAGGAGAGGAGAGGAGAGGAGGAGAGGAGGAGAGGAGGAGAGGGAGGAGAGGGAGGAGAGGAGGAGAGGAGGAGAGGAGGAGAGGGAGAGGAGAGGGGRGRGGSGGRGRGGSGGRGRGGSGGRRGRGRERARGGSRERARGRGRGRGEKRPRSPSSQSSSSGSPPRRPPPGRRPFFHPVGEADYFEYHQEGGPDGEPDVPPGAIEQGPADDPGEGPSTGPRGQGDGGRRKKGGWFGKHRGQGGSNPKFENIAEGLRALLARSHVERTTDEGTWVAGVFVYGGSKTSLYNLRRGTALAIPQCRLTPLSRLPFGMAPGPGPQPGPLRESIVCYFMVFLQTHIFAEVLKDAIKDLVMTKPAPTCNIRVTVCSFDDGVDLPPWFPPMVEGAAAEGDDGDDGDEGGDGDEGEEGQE
Description: inhibition of EBV nuclear antigen 1 DNA binding – biochemical, fluorescence polarization, 1536-well, dose response (AID 2381).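 Further: fluorescence polarization of a Cy5 DNA probe bound by EBNA-1 protein.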 Also on record: species or system human gammaherpesvirus 4.

Assay [13] can be described thus: NIH3T3 cell viability loss – ATP luminescence, mouse fibroblasts, counter-screen, dose response (AID 2010).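 Further: cells exposed to compound for about 90 hours before reading.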 Type of assay: functional, cell-based.
A short description of assay [14]: Trypanosoma cruzi growth suppression in host cells – NIH3T3 host cells, beta-gal luminescence, confirmation (AID 2044).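 Further: intracellular parasites grown in NIH/3T3 mouse fibroblasts as host cells; luminescent beta-galactosidase reporter signal from transgenic T. cruzi replicating inside host cells; inhibitors lower the luminescence signal.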 Type of assay: functional, cell-based.
Assay [15] is described as follows: A cytotoxicity screen of small molecule inhibitors of the PhoP region in Salmonella typhi identified in the primary screen. [Related pubchem assays: 1850, 1864, 1985 ]. Type of assay: functional.
Assay [16] concerns the target G-protein coupled receptor 55 (Homo sapiens, UniProt Q9Y2T6). Briefly: selective activators of receptor GPR55 – imaging, U2OS cells, beta-arrestin-GFP redistribution, primary screen (AID 1961). Type of assay: functional.
In assay [17] the target is Peroxisome proliferator-activated receptor gamma/Nuclear receptor corepressor 2 (Homo sapiens, UniProt P37231+Q9Y618). Briefly: Counterscreen for NR2E3 inverse agonists: TR-FRET-based biochemical high throughput dose response assay to identify inverse agonists of the interaction between peroxisome proliferator-activated receptor gamma (PPARg) and nuclear receptor co-repressor 2 (NCOR2). Type of assay: functional.
Peroxisome proliferator-activated receptor gamma/Nuclear receptor corepressor 2, sequence (P37231 whole entry): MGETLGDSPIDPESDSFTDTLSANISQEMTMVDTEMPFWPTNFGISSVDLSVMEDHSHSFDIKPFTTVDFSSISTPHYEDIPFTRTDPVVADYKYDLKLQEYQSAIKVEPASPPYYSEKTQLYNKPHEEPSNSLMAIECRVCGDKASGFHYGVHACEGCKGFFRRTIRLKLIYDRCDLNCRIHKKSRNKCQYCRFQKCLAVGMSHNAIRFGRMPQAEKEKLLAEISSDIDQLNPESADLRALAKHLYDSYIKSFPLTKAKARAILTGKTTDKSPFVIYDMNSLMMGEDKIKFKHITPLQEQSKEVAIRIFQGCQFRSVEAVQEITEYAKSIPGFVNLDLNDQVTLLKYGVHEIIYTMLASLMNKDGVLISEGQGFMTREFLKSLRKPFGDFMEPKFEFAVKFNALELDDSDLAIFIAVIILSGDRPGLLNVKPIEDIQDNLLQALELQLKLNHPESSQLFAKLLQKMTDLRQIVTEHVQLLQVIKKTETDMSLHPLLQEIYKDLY
Peroxisome proliferator-activated receptor gamma/Nuclear receptor corepressor 2, sequence (Q9Y618 whole entry): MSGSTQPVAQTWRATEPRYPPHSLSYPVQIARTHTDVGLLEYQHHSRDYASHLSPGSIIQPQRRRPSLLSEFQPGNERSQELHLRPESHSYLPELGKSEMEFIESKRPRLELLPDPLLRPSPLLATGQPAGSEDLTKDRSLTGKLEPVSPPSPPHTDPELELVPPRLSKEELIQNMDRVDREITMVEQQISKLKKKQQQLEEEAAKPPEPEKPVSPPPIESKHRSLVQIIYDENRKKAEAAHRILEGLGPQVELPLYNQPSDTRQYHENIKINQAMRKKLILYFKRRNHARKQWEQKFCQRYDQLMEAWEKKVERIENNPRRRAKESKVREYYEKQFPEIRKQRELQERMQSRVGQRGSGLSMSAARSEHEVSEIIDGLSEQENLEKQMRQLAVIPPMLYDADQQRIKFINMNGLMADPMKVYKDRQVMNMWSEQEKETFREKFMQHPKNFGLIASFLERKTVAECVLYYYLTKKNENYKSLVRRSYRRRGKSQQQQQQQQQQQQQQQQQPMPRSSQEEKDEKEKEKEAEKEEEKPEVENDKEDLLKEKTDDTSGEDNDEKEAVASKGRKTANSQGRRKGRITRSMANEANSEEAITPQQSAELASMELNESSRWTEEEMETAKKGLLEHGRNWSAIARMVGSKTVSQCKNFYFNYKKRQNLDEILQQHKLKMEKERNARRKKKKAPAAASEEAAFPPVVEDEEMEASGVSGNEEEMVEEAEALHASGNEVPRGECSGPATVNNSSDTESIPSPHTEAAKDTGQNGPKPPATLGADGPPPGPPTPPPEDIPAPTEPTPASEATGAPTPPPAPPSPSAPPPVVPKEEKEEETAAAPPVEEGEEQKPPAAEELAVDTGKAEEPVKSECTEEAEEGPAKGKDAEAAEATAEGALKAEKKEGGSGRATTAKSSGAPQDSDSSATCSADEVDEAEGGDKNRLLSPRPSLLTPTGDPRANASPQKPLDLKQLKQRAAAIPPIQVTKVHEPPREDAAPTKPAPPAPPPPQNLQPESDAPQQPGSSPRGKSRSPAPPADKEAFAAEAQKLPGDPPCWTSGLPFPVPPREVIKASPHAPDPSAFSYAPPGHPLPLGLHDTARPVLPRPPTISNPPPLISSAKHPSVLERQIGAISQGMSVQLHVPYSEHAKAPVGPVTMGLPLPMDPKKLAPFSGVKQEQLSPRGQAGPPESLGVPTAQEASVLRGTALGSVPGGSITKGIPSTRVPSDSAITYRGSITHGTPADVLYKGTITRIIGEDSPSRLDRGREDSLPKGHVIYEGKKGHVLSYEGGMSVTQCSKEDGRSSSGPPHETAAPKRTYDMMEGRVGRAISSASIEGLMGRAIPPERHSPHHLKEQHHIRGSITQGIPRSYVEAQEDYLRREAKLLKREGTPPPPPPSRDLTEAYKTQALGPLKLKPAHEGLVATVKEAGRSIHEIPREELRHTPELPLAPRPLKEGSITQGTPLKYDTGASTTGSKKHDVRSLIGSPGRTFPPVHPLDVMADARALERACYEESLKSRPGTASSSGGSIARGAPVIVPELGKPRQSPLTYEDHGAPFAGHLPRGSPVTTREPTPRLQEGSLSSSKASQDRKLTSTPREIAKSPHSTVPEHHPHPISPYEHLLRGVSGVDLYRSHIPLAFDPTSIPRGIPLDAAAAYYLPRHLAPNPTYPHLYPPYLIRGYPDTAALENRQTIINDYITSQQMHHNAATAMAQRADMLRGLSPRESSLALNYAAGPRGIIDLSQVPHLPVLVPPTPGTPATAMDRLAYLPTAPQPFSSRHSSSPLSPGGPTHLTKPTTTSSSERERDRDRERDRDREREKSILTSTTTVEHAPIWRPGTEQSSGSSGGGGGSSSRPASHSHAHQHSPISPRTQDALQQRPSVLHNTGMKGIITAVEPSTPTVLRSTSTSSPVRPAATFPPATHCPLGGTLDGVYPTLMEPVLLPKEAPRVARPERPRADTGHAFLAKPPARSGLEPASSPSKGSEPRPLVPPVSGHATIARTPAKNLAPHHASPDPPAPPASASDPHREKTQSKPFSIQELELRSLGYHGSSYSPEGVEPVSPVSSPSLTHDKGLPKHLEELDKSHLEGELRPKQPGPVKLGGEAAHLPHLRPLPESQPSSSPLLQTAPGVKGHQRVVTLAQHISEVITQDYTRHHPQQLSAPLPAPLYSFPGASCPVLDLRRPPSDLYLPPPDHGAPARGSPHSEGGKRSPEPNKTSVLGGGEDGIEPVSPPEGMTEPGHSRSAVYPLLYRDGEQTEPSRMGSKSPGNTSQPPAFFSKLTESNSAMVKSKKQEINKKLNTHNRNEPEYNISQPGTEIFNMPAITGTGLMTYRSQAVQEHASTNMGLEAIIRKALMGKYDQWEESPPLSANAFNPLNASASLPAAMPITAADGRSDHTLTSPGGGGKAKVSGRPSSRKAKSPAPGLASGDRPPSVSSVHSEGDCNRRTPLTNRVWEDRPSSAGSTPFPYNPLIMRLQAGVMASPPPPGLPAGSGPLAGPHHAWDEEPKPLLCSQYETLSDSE

The target in assay [18] is Eukaryotic translation initiation factor 4E (Mus musculus, UniProt P63073). Briefly: blockers of eIF4G binding by eIF4E – biochemical, TR-FRET, dose response (AID 855).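 Further: potency for disrupting eIF4E binding to eIF4GI seen as loss of FRET.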 Type of assay: functional. In general terms: Time-resolved FRET reads energy transfer from a long-lived donor to a nearby acceptor.
Eukaryotic translation initiation factor 4E, sequence (P63073 whole entry): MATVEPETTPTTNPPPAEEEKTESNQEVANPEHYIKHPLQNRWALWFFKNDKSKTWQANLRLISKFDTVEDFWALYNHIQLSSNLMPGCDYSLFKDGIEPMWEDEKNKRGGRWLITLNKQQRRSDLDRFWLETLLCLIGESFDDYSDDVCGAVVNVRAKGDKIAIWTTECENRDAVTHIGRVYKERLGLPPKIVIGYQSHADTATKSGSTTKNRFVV
The target of assay [19] is 26S proteasome non-ATPase regulatory subunit 14 (Homo sapiens, UniProt O00487). Description: inhibition of proteasome subunit RPN11 – biochemical, fluorescence polarization, uHTS hits, confirmation (AID 602368). Type of assay: functional.
For assay [20], the target named is 72 kDa type IV collagenase (Homo sapiens, UniProt P08253). Briefly: Dose Response validation of uHTS RPN11 inhibitor hits using a MMP-2 Fluorescence assay. Type of assay: functional.
72 kDa type IV collagenase, sequence (P08253 whole entry): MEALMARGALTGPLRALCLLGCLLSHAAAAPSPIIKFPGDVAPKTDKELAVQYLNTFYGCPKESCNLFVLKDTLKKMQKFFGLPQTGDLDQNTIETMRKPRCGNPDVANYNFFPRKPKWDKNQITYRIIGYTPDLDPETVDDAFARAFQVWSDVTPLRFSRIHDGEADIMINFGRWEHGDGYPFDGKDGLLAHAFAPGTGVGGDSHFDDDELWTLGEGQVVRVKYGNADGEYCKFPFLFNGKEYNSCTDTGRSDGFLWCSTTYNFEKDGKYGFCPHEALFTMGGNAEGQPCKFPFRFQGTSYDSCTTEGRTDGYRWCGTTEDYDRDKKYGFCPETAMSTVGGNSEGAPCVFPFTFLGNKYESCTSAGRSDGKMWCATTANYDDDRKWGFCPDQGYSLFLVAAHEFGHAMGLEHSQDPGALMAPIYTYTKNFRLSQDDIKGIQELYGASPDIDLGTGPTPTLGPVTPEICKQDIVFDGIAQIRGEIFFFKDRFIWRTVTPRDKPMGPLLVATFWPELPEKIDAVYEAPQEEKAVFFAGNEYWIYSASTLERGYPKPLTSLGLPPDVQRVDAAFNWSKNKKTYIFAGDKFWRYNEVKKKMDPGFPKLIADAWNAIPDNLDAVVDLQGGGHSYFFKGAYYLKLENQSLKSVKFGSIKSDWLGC
In assay [21] the target is Photoreceptor-specific nuclear receptor (Homo sapiens, UniProt Q9Y5X4). Description: ligands suppressing NR2E3 nuclear receptor activity – biochemical, TR-FRET, dose response (AID 463256). Type of assay: functional.
Photoreceptor-specific nuclear receptor, sequence (Q9Y5X4 whole entry): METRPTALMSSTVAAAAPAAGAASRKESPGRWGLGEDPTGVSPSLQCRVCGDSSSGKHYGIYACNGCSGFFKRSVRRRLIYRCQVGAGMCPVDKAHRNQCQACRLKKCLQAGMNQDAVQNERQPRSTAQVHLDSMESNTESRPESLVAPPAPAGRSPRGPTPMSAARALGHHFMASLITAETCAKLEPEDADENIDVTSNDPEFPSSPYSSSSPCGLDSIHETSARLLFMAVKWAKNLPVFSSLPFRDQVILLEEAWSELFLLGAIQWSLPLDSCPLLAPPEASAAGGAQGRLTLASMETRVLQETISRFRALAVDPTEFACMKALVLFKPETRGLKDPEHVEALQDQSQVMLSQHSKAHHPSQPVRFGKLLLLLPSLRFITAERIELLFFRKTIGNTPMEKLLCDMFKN
For assay [22], the target named is Prothrombin (Bos taurus, UniProt P00735). Briefly: thrombin protease inhibitors – biochemical, fluorescence polarization, uHTS hits, dose response (AID 602369). Type of assay: functional.

Calls of active or inactive are those of the source.

G-protein coupled receptor 55, sequence (Q9Y2T6 whole entry): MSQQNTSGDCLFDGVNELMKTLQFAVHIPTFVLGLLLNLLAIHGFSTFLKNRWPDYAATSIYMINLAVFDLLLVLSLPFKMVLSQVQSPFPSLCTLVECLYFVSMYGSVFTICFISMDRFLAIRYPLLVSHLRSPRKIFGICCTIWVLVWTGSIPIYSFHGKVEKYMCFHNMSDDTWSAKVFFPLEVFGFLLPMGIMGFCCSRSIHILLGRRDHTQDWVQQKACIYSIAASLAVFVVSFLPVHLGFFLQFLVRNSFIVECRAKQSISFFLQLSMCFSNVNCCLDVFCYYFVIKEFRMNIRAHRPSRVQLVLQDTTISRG
G-protein coupled receptor 35, sequence (Q9HC97 whole entry): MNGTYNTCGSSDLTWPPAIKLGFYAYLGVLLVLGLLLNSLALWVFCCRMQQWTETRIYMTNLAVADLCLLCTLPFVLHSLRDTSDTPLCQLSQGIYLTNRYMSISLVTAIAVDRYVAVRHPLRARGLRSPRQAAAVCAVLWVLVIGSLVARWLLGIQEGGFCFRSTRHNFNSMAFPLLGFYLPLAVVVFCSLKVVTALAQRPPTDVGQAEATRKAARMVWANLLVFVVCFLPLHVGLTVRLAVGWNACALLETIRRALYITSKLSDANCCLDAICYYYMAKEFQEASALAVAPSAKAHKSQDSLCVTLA

As for `N#Cc1c(/N=C/c2ccco2)sc2c1CCC2`, at Prothrombin [1], the half-maximal inhibitory concentration (IC50) (usually the concentration at which inhibition is half-maximal) is recorded as > 50 µM (not active).
Take `COCCN1C(=O)/C(=C/c2ccc(N3CCCC3)cc2)SC1=S`: the EC50 – broadly, the concentration needed to bring the measured effect to its halfway point – in the assay with BJ [2] was > 150 µM (not active); with BJ [3] it was 20.9 µM (inconclusive); in [5] it was 49.7 µM (active); in the assay on BJ [6] it was > 150 µM (not active); in assay [7], > 99 µM (inactive); in [8], > 99 µM (inactive). In assay [4], the IC50 was < 0.5 µM (active).
In the case of `CCOC(=O)c1ccc(N2Cc3ccccc3C2=N)cc1`, the AC50 (in general, the concentration giving half of the maximal activity seen) in [9] is 3.83 µM (active).
As for `CN1C(=O)C(=Cc2ccc(N3CCOCC3)o2)C(=O)N(C)C1=O`, the EC50 in assay [10] is > 100 µM (active).
Take `N#Cc1c2ncn(CC(=O)c3ccc(Br)cc3)c(=O)c2c2n1CCC2`: the figures for the IC50 in [11] and in assay [12] were > 111 µM (not active) and 13.1 µM (not active), respectively.
As to `CN1CCc2nc(SCC(=O)Nc3cccc(F)c3)c(C#N)c(-c3cccs3)c2C1`, the EC50 in assay [13] was > 60 µM (not active); in the assay “cells”, < 0.004 µM (active); in assay [14] it was < 0.1 µM (active); in assay [15] it was > 50 µM (active).
Consider `CC(C)=CCCC(C)CN1CCC(n2nccc2NC(=O)c2ccc3c(c2)OCO3)CC1` (stereo unspecified), for which the EC50 was 9.11 µM (active) in assay [13], > 10 µM (not active) in the assay “cells” and < 0.1 µM (active) in [14].
With `CCCN(CCC)Cc1c(C(=O)N/N=C/C(C)=C\c2ccccc2)nnn1-c1nonc1N`, the EC50 in [16] was 0.525 µM (active).
`C=CCn1c(SCC(=O)Nc2ccc(-c3nc4ccc(C)cc4s3)cc2)nnc1-c1ccccc1`: the IC50 in assay [17] is 0.737 µM (active); in assay [18], > 64 µM (inactive); in assay [19] it was 23.7 µM (active); in [20] it was > 100 µM (inactive); in [21] it was 0.774 µM (active); at Prothrombin [22], 51.4 µM (active).

(Values after ChEMBL document CHEMBL1201862, “PubChem BioAssay data set” (2004).)
